In BindingDB's records for patent US20240101551 (Chia Tai Tianqing Pharmaceutical Group, 2024):

Biological target: T1, Bromodomain-containing protein 4 [75-147] (Homo sapiens, UniProt O60885)
T1 construct: 75-147
Assay: In Vitro Enzymatic Activity Assay
Experimental: In the present application, the IC50 value of the compound of formula (I) in inhibiting BRD4 (BD1) enzyme binding reaction were determined by homogeneous time resolved fluorescence (HTRF). The compound of formula (I) was serially diluted 5-fold with 100% DMSO starting from 0.2 mM (7 concentrations in total), and then 2 μL of the compound of formula (I) at each concentration was added to 48 μL of a reaction buffer (20 mM HEPES pH 7.5, 150 mM NaCl, 5 mM DTT, 0.005 % Tween 20, and 100 μg/mL BSA) for dilution, and mixed well. 2.5 μL of the resulting mixture was added to a 384-well plate (OptiPlate-384, purchased from PerkinElmer), then 5 μL of GST-BRD4 (BD1, 44-168 aa) (final concentration: 1 nM) was added, and the resulting mixture was centrifuged, and fully mixed. 2.5 μL of a short peptide Biotin-AHA-SGRGK(Ac)GGK(Ac)GLGK(Ac)GGAK(Ac) RHRKV (final concentration: 100 nM) was then added to initiate the reaction (total reaction volume: 10 μL). […] After being incubated in the incubator for another 1 hour, the fluorescence values (excited at 320 nm, emitted light at 665 nm and 620 nm being detected, and the ratio of the two being the enzyme binding signal) were read on Envision (purchased from PerkinElmer).

An IC50 of 0.64 nM was found for `Cn1cc(-c2nc(CS(C)(=O)=O)ccc2Oc2ccc(F)cc2F)c2cc[nH]c2c1=O` [US20240101551, Compound of Formula I] in this work.
